The results in this text go back to patent US20240158446A1, “CYCLIC COMPOUND HAVING SELECTIVE INHIBITORY ACTION ON KRAS OVER HRAS AND NRAS” (CHUGAI SEIYAKU KABUSHIKI KAISHA, priority 2021, published 2024).

Usually Kd stands for the constant that tells how readily two partners part at equilibrium.

Test [1] concerns the target GDP-bound NRAS wild-type protein (Homo sapiens, UniProt P01111). The test is described as follows: Binding to NRAS by surface plasmon resonance (SPR), Single Cycle Kinetics. The following applies: ratio of KD for GDP-bound NRAS wild-type protein to KD for KRAS, SPR. (In general: Surface plasmon resonance follows binding to a sensor surface in real time, without labels.)

Test [2] concerns the target GDP-bound HRAS wild-type protein (Homo sapiens, UniProt P01112). Briefly: Binding to HRAS by surface plasmon resonance (SPR), Single Cycle Kinetics. The following applies: ratio of KD for GDP-bound HRAS wild-type protein to KD for KRAS, SPR.
For test [3], the system named is human lung cancer strain NCI-H441. Briefly: cells. The note with it: NCI-H441, 96 h, read-out: NCI-H441 IC50 (nM), NCI-H441 cell proliferation, 4 days, CellTiter-Glo. In general terms: In ATP-based viability assays light output follows the ATP content of the culture.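 Also: cell proliferation inhibition after four days measured by CellTiter-Glo.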
Test [4] has as its target GDP-bound KRAS wild-type protein (Homo sapiens, UniProt P01116). The test is described as follows: Binding to KRAS by surface plasmon resonance (SPR), Single Cycle Kinetics. The following applies: SPR, Single Cycle Kinetics, GDP-bound KRAS wild-type protein; read-out: KRAS KD.

Chain of GDP-bound HRAS wild-type protein (P01112 whole entry): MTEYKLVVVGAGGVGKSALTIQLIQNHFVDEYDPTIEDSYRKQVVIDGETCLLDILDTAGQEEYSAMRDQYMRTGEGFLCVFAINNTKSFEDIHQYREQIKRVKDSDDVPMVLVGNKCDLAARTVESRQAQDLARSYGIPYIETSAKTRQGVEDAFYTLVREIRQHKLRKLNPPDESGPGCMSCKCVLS
Chain of GDP-bound NRAS wild-type protein (P01111 whole entry): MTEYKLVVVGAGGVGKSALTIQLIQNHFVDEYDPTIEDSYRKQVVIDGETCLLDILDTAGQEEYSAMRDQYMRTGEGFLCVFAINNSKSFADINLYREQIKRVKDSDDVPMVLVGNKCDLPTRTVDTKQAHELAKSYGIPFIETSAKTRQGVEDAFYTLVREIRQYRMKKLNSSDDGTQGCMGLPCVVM
Chain of GDP-bound KRAS wild-type protein (P01116 whole entry): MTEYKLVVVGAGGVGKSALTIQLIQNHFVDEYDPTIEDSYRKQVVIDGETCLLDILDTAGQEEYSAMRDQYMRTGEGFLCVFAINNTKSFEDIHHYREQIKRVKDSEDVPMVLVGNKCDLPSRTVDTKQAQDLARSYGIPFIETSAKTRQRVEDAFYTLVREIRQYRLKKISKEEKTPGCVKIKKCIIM

As to `CCCOC[C@H]1C(=O)N[C@@H]([C@@H](C)CC)C(=O)N(C)CC(=O)N(C)[C@H]2C/C=C\CCN(C2=O)[C@@H](Cc2ccc(C(F)(F)F)cc2)C(=O)N(C)CC(=O)N[C@@H](CCc2cc(F)c(C(F)(F)F)c(F)c2)C(=O)N2C[C@H](OCC)C[C@H]2C(=O)NC2(CC(F)(F)C2)C(=O)N(C)[C@@H](C2CCCC2)C(=O)N(C)[C@H](C(=O)N(C)CCC)CC(=O)N1C` [PP1744], in test [1], the “NRAS/KRAS (KD ratio)” value is “A (a compound having 10 or more and less than 20 is denoted as A)”. Further, in test [2], the “HRAS/KRAS (KD ratio)” value was “A (a compound having 10 or more and less than 20 is denoted as A)”. The IC50 in test [3] was determined as 5.3 nM. Also, in test [4], the Kd worked out at 0.13 nM.

In the case of `CCCN(C)C(=O)[C@@H]1CC(=O)N(C)[C@@H](COCC)C(=O)N[C@@H]([C@@H](C)CC)C(=O)N(C)CC(=O)N(C)[C@H]2C/C=C\CCN(C2=O)[C@@H](Cc2ccc(C(F)(F)F)cc2)C(=O)N(C)CC(=O)N[C@@H](CCc2cc(F)c(C(F)(F)F)c(F)c2)C(=O)N2C[C@H](OCC)C[C@H]2C(=O)NC2(CC(C)(C)C2)C(=O)N(C)[C@@H](C2CCCC2)C(=O)N1C` [PP2031], the “NRAS/KRAS (KD ratio)” value in test [1] is “B (a compound having 3 or more and less than 10 is denoted as B)”. Besides, the “HRAS/KRAS (KD ratio)” value in test [2] is “B (a compound having 3 or more and less than 10 is denoted as B)”. Also, the IC50 in test [3] is 5.5 nM. In addition, in test [4], the equilibrium dissociation constant (Kd) was 0.14 nM.

Turning to `CCCN(C)C(=O)[C@@H]1CC(=O)N(C)[C@@H](C(C)C)C(=O)N[C@@H]([C@@H](C)CC)C(=O)N(C)CC(=O)N(C)[C@H]2C/C=C\CCN(C2=O)[C@@H](Cc2ccc(C(F)(F)F)cc2)C(=O)N(C)CC(=O)N[C@@H](CCc2cc(F)c(C(F)(F)F)c(F)c2)C(=O)N2C[C@H](OCC)C[C@H]2C(=O)NC2(CCC2)C(=O)N(C)[C@@H](C2CCCC2)C(=O)N1C` [PP1992], the “NRAS/KRAS (KD ratio)” value in test [1] was “AA (a compound having 20 or more is denoted as AA)”. Also, in test [2], the “HRAS/KRAS (KD ratio)” value was “B (a compound having 3 or more and less than 10 is denoted as B)”. In test [3], the IC50 came to 17.7 nM. Besides, in test [4], the Kd was determined as 0.21 nM.

For `CC[C@H](C)[C@@H]1NC(=O)[C@H](CC2CCC2)N(C)C(=O)C[C@@H](C(=O)N(C)C)N(C)C(=O)[C@H](C2CCCC2)N(C)C(=O)C2(CC(C)(C)C2)NC(=O)[C@@H]2CC(F)(F)CN2C(=O)[C@H](CCc2cc(F)c(C(F)(F)F)c(F)c2)NC(=O)CN(C)C(=O)[C@H](Cc2ccc(C(F)(F)F)cc2)N2CC/C=C\C[C@@H](C2=O)N(C)C(=O)CN(C)C1=O` [PP1716], in test [1], the “NRAS/KRAS (KD ratio)” value was “AA (a compound having 20 or more is denoted as AA)”. Moreover, the “HRAS/KRAS (KD ratio)” value in test [2] is “A (a compound having 10 or more and less than 20 is denoted as A)”. For the same molecule, the IC50 in test [3] turned out to be 3.8 nM. Also, the Kd in test [4] amounted to 0.099 nM.

In the case of `CCCN(C)C(=O)[C@@H]1CC(=O)N(C)[C@@H](CC(F)F)C(=O)N[C@@H]([C@@H](C)CC)C(=O)N(C)CC(=O)N(C)[C@H]2C/C=C\CCN(C2=O)[C@@H](Cc2ccc(C(F)(F)F)cc2)C(=O)N(C)CC(=O)N[C@@H](CCc2cc(F)c(C(F)(F)F)c(F)c2)C(=O)N2C[C@H](OCC)C[C@H]2C(=O)NC2(CCC2)C(=O)N(C)[C@@H](C2CCCC2)C(=O)N1C` [PP1700], the “NRAS/KRAS (KD ratio)” value in test [1] was “A (a compound having 10 or more and less than 20 is denoted as A)”. The “HRAS/KRAS (KD ratio)” value in test [2] is “A (a compound having 10 or more and less than 20 is denoted as A)”. Further, the IC50 in test [3] came to 3.6 nM. For the same molecule, the Kd in test [4] stood at 0.11 nM.

As to `CCCOC[C@H]1C(=O)N[C@@H]([C@@H](C)CC)C(=O)N(C)CC(=O)N(C)[C@H]2C/C=C\CCN(C2=O)[C@@H](Cc2ccc(C(F)(F)F)cc2)C(=O)N(C)CC(=O)N[C@@H](CCc2ccc(C(F)(F)F)c(OC)c2)C(=O)N2C[C@@H](C)C[C@H]2C(=O)NC2(CC(C)(C)C2)C(=O)N(C)[C@@H](C2CCCC2)C(=O)N(C)[C@H](C(=O)N(C)CC)CC(=O)N1C` [PP1995], in test [1], the “NRAS/KRAS (KD ratio)” value was “A (a compound having 10 or more and less than 20 is denoted as A)”. Further, in test [2], the “HRAS/KRAS (KD ratio)” value is “B (a compound having 3 or more and less than 10 is denoted as B)”. In addition, the IC50 in test [3] came out at 17.8 nM. The Kd in test [4] came out at 0.21 nM.

`CCO[C@@H]1C[C@H]2C(=O)NC3(CC(C)(C)C3)C(=O)N(C)[C@@H](C3CCCC3)C(=O)N(C)[C@H](C(=O)N(C)CC)CC(=O)N(C)[C@@H](CC(C)C)C(=O)N[C@@H]([C@@H](C)CC)C(=O)NCC(=O)N(C)[C@H]3C/C=C\CCN(C3=O)[C@@H](Cc3ccc(C(F)(F)F)cc3)C(=O)N(C)CC(=O)N[C@@H](CCc3cc(F)c(C(F)(F)F)c(F)c3)C(=O)N2C1` [PP1771]: in test [1], the “NRAS/KRAS (KD ratio)” value is “A (a compound having 10 or more and less than 20 is denoted as A)”. Moreover, the “HRAS/KRAS (KD ratio)” value in test [2] was “A (a compound having 10 or more and less than 20 is denoted as A)”. Also, the IC50 in test [3] came out at 6.6 nM. Further, in test [4], the dissociation constant (Kd) came to 0.097 nM.

Regarding `CCO[C@@H]1C[C@H]2C(=O)NC3(CC(C)(C)C3)C(=O)N(C)[C@@H](C3CCCC3)C(=O)N(C)[C@H](C(=O)N(CC)CC)CC(=O)N(C)[C@@H](CC)C(=O)N[C@@H]([C@@H](C)CC)C(=O)N(C)CC(=O)N(C)[C@H]3C/C=C\CCN(C3=O)[C@@H](Cc3ccc(C)cc3)C(=O)N(C)CC(=O)N[C@@H](CCc3ccc(C(F)(F)F)c(Cl)c3)C(=O)N2C1` [PP1883], the “NRAS/KRAS (KD ratio)” value in test [1] is “A (a compound having 10 or more and less than 20 is denoted as A)”. The “HRAS/KRAS (KD ratio)” value in test [2] was “A (a compound having 10 or more and less than 20 is denoted as A)”. The IC50 in test [3] was determined as 24 nM. Also, in test [4], the Kd worked out at 0.28 nM.

Take `CCCOC[C@H]1C(=O)N[C@@H]([C@@H](C)CC)C(=O)N(C)CC(=O)N(C)[C@H]2C/C=C\CCN(C2=O)[C@@H](Cc2ccc(C(F)(F)F)cc2)C(=O)N(C)CC(=O)N[C@@H](CCc2cc(F)c(Cl)c(F)c2)C(=O)N2C[C@H](OCC)C[C@H]2C(=O)NC2(CC(C)(C)C2)C(=O)N(C)[C@@H](C2CCCC2)C(=O)N(C)[C@H](C(=O)N(C)C)CC(=O)N1C` [PP1764]: the “NRAS/KRAS (KD ratio)” value in test [1] is “AA (a compound having 20 or more is denoted as AA)”. Further, in test [2], the “HRAS/KRAS (KD ratio)” value is “A (a compound having 10 or more and less than 20 is denoted as A)”. Moreover, the IC50 in test [3] was 11.1 nM. The Kd in test [4] was 0.11 nM.

In the case of `CCC[C@H]1C(=O)N[C@@H]([C@@H](C)CC)C(=O)N(C)CC(=O)N(C)[C@H]2C/C=C\CCN(C2=O)[C@@H](Cc2ccc(C(F)(F)F)cc2)C(=O)N(C)CC(=O)N[C@@H](CCc2cc(F)c(C(F)(F)F)c(F)c2)C(=O)N2C[C@H](F)C[C@H]2C(=O)NC2(CC(C)(C)C2)C(=O)N(C)[C@@H](C2CCCC2)C(=O)N(C)[C@H](C(=O)N(C)C)CC(=O)N1C` [PP1689], in test [1], the “NRAS/KRAS (KD ratio)” value was “A (a compound having 10 or more and less than 20 is denoted as A)”. In test [2], the “HRAS/KRAS (KD ratio)” value was “B (a compound having 3 or more and less than 10 is denoted as B)”. Moreover, the IC50 in test [3] turned out to be 1.4 nM. Moreover, in test [4], the Kd turned out to be 0.023 nM.

With `CC[C@H](C)[C@@H]1NC(=O)[C@H](CC)N(C)C(=O)C[C@@H](C(=O)N(C)CC)N(C)C(=O)[C@H](C2CCCC2)N(C)C(=O)C2(CC(C)(C)C2)NC(=O)[C@@H]2C[C@@H](C)CN2C(=O)[C@H](CCc2ccc(C(F)(F)F)c(OC)c2)NC(=O)CN(C)C(=O)[C@H](Cc2ccc(C)cc2)N2CC/C=C\C[C@@H](C2=O)N(C)C(=O)CN(C)C1=O` [PP1870], the “NRAS/KRAS (KD ratio)” value in test [1] is “A (a compound having 10 or more and less than 20 is denoted as A)”. Moreover, the “HRAS/KRAS (KD ratio)” value in test [2] is “A (a compound having 10 or more and less than 20 is denoted as A)”. The IC50 in test [3] came to 12.4 nM. In test [4], the Kd was 0.19 nM.
